Experimental data taken from US20170275275A1, “BENZENESULFONAMIDES USEFUL AS SODIUM CHANNEL INHIBITORS” (PFIZER INC., priority 2014, published 2017).
≈ marks a conversion by molar mass, not a printed value. Where a name gives a salt, the structure may show the parent alone.

Key:
[1] = target: T1, Nav1.7 (or SCN9A) channel (Homo sapiens, UniProt Q15858); test: Nav1.7 (hSCN9A) channel block, PatchXpress (PX) whole-cell electrophysiology in stably transfected HEK cells; type: cell-based; details: for IC50: estimated IC50 from single point electrophysiology data, PatchXpress platform, HEK cells expressing hSCN9A, clamped at V1/2 of inactivation, read-out: Nav1.7 EIC50
T1 construct: expressed in transfected cells
Method: The ability of the compounds of formula (I) to block the Nav1.7 (or SCN9A) channel was measured using the assay described below.
Human Embryonic Kidney (HEK) cells were transfected with an hSCN9A construct using lipofectamine reagent (Invitrogen), using standard techniques. Cells stably expressing the hSCN9A constructs were identified by their resistance to G-418 (400 μg/ml). Clones were screened for expression using the whole-cell voltage-clamp technique.
HEK cells stably transfected with hSCN9A were maintained in DMEM medium supplemented with 10% heat-inactivated fetal bovine serum and 400 μg/ml G-418 in an incubator at 37° C. with a humidified atmosphere of 10% CO2. For HTS, cells were harvested from flasks by trypsinization and replated in an appropriate multi-well plate (typically 96 or 384 wells/plate) such that confluence would be achieved within 24 hours of plating. Cells were typically used for electrophysiological experiments within 24 to 72 hours after plating.
For conventional whole-cell voltage clamp experiments cells were removed from the culture flask by brief trypsinization and re-plated at low density onto glass cover slips. Cover slips containing HEK cells expressing hSCN9A were placed in a bath on the stage of an inverted microscope and perfused (approximately 1 ml/minutes) with extracellular solution of the following composition: 138 mM NaCl, 2 mM CaCl2, 5.4 mM KCl, 1 mM MgCl2, 10 mM glucose, and 10 mM HEPES, pH 7.4, with NaOH. […] The osmolarity of the extracellular and intracellular solutions was 300 mOsm/kg and 295 mOsm/kg, respectively. All recordings were made at room temperature (22-24° C.) using AXOPATCH 200B amplifiers and PCLAMP software (Axon Instruments, Burlingame, Calif.). hSCN9A currents in HEK cells were measured using the whole-cell configuration of the patch-clamp technique (Hamill et al., 1981). Uncompensated series resistance was typically 2 to 5 mega ohms and >85% series resistance compensation was routinely achieved. […] Current records were acquired at 20 to 50 KHz and filtered at 5 to 10 KHz.
HEK cells stably transfected with hSCN9A were viewed under Hoffman contrast optics and placed in front of an array of flow pipes emitting either control or compound-containing extracellular solutions.
The voltage-dependence of inactivation was determined by applying a series of depolarizing prepulses (8 sec long in 10 mV increments) from a negative holding potential. The voltage was then immediately stepped to 0 mV to assess the magnitude of the sodium current. Currents elicited at 0 mV were plotted as a function of prepulse potential to allow estimation of the voltage at which 50% of the channels were inactivated (midpoint of inactivation or V1/2). Compounds were tested for their ability to inhibit hSCN9A sodium channels by activating the channel with a 20 msec voltage step […] to 0 mV following an 8 second conditioning prepulse to the empirically determined V1/2. Compound effect (% inhibition) was determined by difference in current amplitude before and after application of test compounds. For ease of comparison, “estimated IC-50” (EIC50) values were calculated from single point electrophysiology data by the following equation, (tested concentration, nM)×(100-% inhibition/% inhibition). Inhibition values <20% and >80% were excluded from the calculation.
Electrophysiological assays were conducted with PatchXpress 7000 hardware and associated software (Molecular Devices Corp). All assay buffers and solutions were identical to those used in conventional whole-cell voltage clamp experiments described above. hSCN9A cells were grown as above to 50%-80% confluency and harvested by trypsinization. Trypsinized cells were washed and resuspended in extracellular buffer at a concentration of 1×10^6 cells/ml. The onboard liquid handling facility of the PatchXpress was used for dispensing cells and application of test compounds.

[2] = Aqueous solubility, shake-flask method; type: physicochemical; details: aqueous buffer, thermodynamic from solid
Method: Aqueous solubility data were generated via a “shake-flask” method where an excess of compound was added to a buffer (typically phosphate buffered saline at pH 7.4) and shaken for a period of 18 hours at room temperature. After this time any excess solid was removed by double centrifugation to obtain a saturated aqueous solution. The amount of compound solubilised was quantified by HPLC-UV or LC-MS against a standard calibration curve.
The solubility data generated are set out below. Where a greater than figure is quoted, all available compound was solubilised and saturation was not achieved in the conditions employed.

[3] = pH 7.5, shaken 18 hours at room temperature
[4] = pH 7.4, shaken 18 hours at room temperature

T1 sequence (Q15858 whole entry): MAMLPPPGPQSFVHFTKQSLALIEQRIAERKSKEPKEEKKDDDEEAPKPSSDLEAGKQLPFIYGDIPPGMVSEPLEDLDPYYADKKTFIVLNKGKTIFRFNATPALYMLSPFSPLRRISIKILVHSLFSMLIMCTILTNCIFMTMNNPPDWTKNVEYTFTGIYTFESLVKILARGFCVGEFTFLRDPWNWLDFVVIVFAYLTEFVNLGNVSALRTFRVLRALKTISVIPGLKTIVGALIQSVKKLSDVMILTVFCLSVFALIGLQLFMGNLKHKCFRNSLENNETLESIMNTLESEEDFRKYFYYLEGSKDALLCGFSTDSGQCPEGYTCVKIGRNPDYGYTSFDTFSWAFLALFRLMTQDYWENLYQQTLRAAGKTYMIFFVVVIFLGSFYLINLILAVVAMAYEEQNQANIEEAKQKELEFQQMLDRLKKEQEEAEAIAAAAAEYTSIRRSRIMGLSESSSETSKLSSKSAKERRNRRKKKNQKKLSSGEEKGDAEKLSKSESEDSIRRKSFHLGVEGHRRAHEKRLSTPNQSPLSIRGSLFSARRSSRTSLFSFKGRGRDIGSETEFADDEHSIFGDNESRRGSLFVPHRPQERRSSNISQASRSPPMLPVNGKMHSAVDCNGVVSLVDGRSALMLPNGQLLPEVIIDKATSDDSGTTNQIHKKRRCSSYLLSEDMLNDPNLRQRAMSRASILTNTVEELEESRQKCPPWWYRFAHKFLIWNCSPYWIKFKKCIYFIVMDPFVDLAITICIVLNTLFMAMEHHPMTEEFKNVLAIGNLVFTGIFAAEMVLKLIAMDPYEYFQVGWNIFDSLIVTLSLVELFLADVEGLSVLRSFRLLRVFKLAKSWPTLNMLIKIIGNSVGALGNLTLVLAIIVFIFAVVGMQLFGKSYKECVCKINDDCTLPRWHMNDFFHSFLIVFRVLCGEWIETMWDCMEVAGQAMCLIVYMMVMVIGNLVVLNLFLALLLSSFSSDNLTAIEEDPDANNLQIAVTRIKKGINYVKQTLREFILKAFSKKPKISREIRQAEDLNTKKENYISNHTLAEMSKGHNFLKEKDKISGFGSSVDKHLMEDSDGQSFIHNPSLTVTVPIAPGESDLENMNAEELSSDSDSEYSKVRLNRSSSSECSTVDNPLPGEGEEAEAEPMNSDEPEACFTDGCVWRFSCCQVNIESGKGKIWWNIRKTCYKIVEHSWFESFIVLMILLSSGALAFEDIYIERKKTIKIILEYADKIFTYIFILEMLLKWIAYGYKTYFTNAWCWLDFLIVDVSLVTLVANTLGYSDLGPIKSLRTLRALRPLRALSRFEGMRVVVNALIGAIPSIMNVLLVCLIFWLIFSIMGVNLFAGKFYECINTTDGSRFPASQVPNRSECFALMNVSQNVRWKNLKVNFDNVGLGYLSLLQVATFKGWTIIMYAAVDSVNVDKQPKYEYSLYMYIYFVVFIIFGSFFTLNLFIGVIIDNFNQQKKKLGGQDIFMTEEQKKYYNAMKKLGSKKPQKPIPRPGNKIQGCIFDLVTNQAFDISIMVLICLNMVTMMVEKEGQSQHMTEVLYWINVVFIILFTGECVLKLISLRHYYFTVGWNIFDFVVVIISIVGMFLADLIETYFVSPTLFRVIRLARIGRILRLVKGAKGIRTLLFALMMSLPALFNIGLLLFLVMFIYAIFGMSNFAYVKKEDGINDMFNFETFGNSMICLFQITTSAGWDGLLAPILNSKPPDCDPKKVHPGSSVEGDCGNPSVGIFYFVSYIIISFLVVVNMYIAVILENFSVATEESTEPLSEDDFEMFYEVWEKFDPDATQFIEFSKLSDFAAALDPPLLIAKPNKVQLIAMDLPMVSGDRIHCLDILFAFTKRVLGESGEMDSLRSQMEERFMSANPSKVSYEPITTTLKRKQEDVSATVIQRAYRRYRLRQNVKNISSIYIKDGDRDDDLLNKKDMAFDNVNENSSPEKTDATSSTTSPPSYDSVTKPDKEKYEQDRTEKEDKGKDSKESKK

Row | Compound | IC50 [1] | solubility at 18 h [2, 3] | also measured
1 | O=S(=O)(Nc1nncs1)c1cc(Cl)c(Oc2ccc(-c3cccc(C(F)(F)F)c3)cc2-c2ccnc(CNCCC3CCNCC3)c2)cc1F [Example 6, 5-Chloro-2-fluoro-4-{[3-(2-{[(2-piperidin-4-ylethyl)amino]methyl}pyridin-4-yl)-3′-(trifluoromethyl)biphenyl-4-yl]oxy}-N-1,3,4-thiadiazol-2-ylbenzenesulfonamide bis-formate salt] | 2.1 nM | < 0.5 mg/mL | solubility at 18 h ([2]; pH 5.0, shaken 18 hours at room temperature): > 2.3 mg/mL
2 | NCc1cc(-c2cc(-c3cccc(C(F)(F)F)c3)ccc2Oc2cc(F)c(S(=O)(=O)Nc3nncs3)cc2Cl)ccn1 [Example 7, 4-({3-[2-(Aminomethyl)pyridin-4-yl]-3′-(trifluoromethyl)biphenyl-4-yl}oxy)-5-chloro-2-fluoro-N-1,3,4-thiadiazol-2-ylbenzenesulfonamide bis-formate salt] | 1.5 nM |  | solubility at 18 h ([2]; pH 7.2, shaken 18 hours at room temperature): 0.0005 mg/mL
3 | COCCOCCOCCOCCOCCOCCOCCOCCOCCOCCOCCOCCNCc1cc(-c2cc(-c3cccc(C(F)(F)F)c3)ccc2Oc2ccc(S(=O)(=O)Nc3ncns3)cc2C#N)ccn1 [Example 12, 3-cyano-4-({3-[2-(2,5,8,11,14,17,20,23,26,29,32,35-dodecaoxa-38-azanonatriacontan-39-yl)pyridin-4-yl]-3′-(trifluoromethyl)biphenyl-4-yl}oxy)-N-(1,2,4-thiadiazol-5-yl)benzenesulfonamide] | 2.3 nM | 0.612 mg/mL (≈ 532 µM) | 
4 | COCCOCCOCCOCCNCc1cc(-c2cc(-c3cccc(C(F)(F)F)c3)ccc2Oc2ccc(S(=O)(=O)Nc3ncns3)cc2C#N)ccn1 [Example 15, 4-((3-(2-(5,8,11,14-tetraoxa-2-azapentadecyl)pyridin-4-yl)-3′-(trifluoromethyl)-[1,1′-biphenyl]-4-yl)oxy)-3-cyano-N-(1,2,4-thiadiazol-5-yl)benzenesulfonamide] | 1 nM | 0.11 mg/mL (≈ 138 µM) | 
5 | COCCOCCOCCOCCOCCOCCOCCOCCOCCOCCOCCOCCC(=O)N1CCC(CCNCc2cc(-c3cc(-c4cccc(C(F)(F)F)c4)ccc3Oc3ccc(S(=O)(=O)Nc4ncns4)cc3C#N)ccn2)CC1 [Example 17, 4-((3-(2-(((2-(1-(2,5,8,11,14,17,20,23,26,29,32,35-dodecaoxaoctatriacontan-38-oyl)piperidin-4-yl)ethyl)amino)methyl)pyridin-4-yl)-3′-(trifluoromethyl)-[1,1′-biphenyl]-4-yl)oxy)-3-cyano-N-(1,2,4-thiadiazol-5-yl)benzenesulfonamide] | < 10 nM |  | inhibition at 0.01 µM ([1]; HEK293, Nav1.7, PatchXpress, 10 nM, read-out: % inhibition at 10 nM dose): 87.4%; solubility at 18 h [2, 4]: > 2.3 mg/mL
6 | N#Cc1cc(S(=O)(=O)Nc2ncns2)ccc1Oc1ccc(-c2cccc(C(F)(F)F)c2)cc1-c1ccnc(CNCCC2CCNCC2)c1 [Example 18b, 3-Cyano-4-{[3-(2-{[(2-piperidin-4-ylethyl)amino]methyl}pyridin-4-yl)-3′-(trifluoromethyl)biphenyl-4-yl]oxy}-N-1,2,4-thiadiazol-5-ylbenzenesulfonamide trihydrochloride salt] |  |  | solubility at 18 h [2, 4]: > 10 mg/mL
7 | COCCOCCOCCOCCOCCOCCOCCOCCOCCOCCOCCOCCC(=O)NCc1cc(-c2cc(-c3cccc(C(F)(F)F)c3)ccc2Oc2ccc(S(=O)(=O)Nc3ncns3)cc2C#N)ccn1 [Example 19, N-((4-(4-(4-(N-(1,2,4-thiadiazol-5-yl)sulfamoyl)-2-cyanophenoxy)-3′-(trifluoromethyl)-[1,1′-biphenyl]-3-yl)pyridin-2-yl)methyl)-2,5,8,11,14,17,20,23,26,29,32,35-dodecaoxaoctatriacontan-38-amide] | 17.5 nM | > 0.003 mg/mL | 
8 | COCCOCCOCCOCCO[C@@H]1CCN(Cc2cc(-c3cc(-c4cccc(C(F)(F)F)c4)ccc3Oc3ccc(S(=O)(=O)Nc4ncns4)cc3C#N)ccn2)C1 [Example 21, (R)-4-((3-(2-((3-((2,5,8,11-tetraoxatridecan-13-yl)oxy)pyrrolidin-1-yl)methyl)pyridin-4-yl)-3′-(trifluoromethyl)-[1,1′-biphenyl]-4-yl)oxy)-3-cyano-N-(1,2,4-thiadiazol-5-yl)benzenesulfonamide trifluoroacetate salt] | 7.9 nM | 0.056 mg/mL | 
9 | N#Cc1cc(S(=O)(=O)Nc2ncns2)ccc1Oc1ccc(-c2cccc(C(F)(F)F)c2)cc1-c1ccnc(CN)c1 [Example 26, 4-({3-[2-(Aminomethyl)pyridin-4-yl]-3′-(trifluoromethyl)biphenyl-4-yl}oxy)-3-cyano-N-1,2,4-thiadiazol-5-ylbenzenesulfonamide bis-formate salt] | 0.5 nM | 0.003 mg/mL | 
10 | COCCOCCOCCOCCOCCOCCOCCOCCOCCOCCOCCOCCC(=O)N1CCC(CCNCc2cc(-c3cc(-c4cccc(C(F)(F)F)c4)ccc3Oc3cc(F)c(S(=O)(=O)Nc4cscn4)cc3Cl)ccn2)CC1 [Example 30, 5-chloro-2-fluoro-4-{[3-{2-[({2-[1-(38-oxo-2,5,8,11,14,17,20,23,26,29,32,35-dodecaoxaoctatriacontan-38-yl)piperidin-4-yl]ethyl}amino)methyl]pyridin-4-yl}-3′-(trifluoromethyl)biphenyl-4-yl]oxy}-N-(1,3-thiazol-4-yl)benzenesulfonamide hydrochloride salt] | 23.9 nM |  | 
11 | COCCOCCOCCOCCOCCOCCOCCOCCOCCOCCOCCOCCC(=O)N1CCC(CCNCc2cccc(-c3cc(-c4ccccc4)ccc3Oc3ccc(S(=O)(=O)Nc4ncns4)cc3C#N)c2)CC1 [Example 31, 3-cyano-4-({3″-[({2-[1-(38-oxo-2,5,8,11,14,17,20,23,26,29,32,35-dodecaoxaoctatriacontan-38-yl)piperidin-4-yl]ethyl}amino)methyl]-1,1′:3′,1″-terphenyl-4′-yl}oxy)-N-(1,2,4-thiadiazol-5-yl)benzenesulfonamide] | 9.8 nM |  | 
12 | COCCOCCOCCOCCOCCOCCOCCOCCOCCOCCOCCOCCC(=O)N1CCN(c2cc(-c3cc(-c4ccc(C(F)(F)F)cc4)ccc3Oc3cc(F)c(S(=O)(=O)Nc4nncs4)cc3Cl)ccn2)CC1 [Example 32, 5-chloro-2-fluoro-4-{[3-{2-[4-(38-oxo-2,5,8,11,14,17,20,23,26,29,32,35-dodecaoxaoctatriacontan-38-yl)piperazin-1-yl]pyridin-4-yl}-4′-(trifluoromethyl)biphenyl-4-yl]oxy}-N-(1,3,4-thiadiazol-2-yl)benzenesulfonamide] | 16 nM |  | 
13 | COCCOCCOCCOCCOCCOCCOCCOCCOCCOCCOCCOCCC(=O)N1CCC(CCNCc2cc(-c3cc(-c4cccc(C(F)(F)F)c4)ccc3Oc3cc(F)c(S(=O)(=O)Nc4nncs4)cc3Cl)ccn2)CC1 [Example 33, 5-chloro-2-fluoro-4-{[3-{2-[({2-[1-(38-oxo-2,5,8,11,14,17,20,23,26,29,32,35-dodecaoxaoctatriacontan-38-yl)piperidin-4-yl]ethyl}amino)methyl]pyridin-4-yl}-3′-(trifluoromethyl)biphenyl-4-yl]oxy}-N-(1,3,4-thiadiazol-2-yl)benzenesulfonamide formate salt] | 1.7 nM |  | 
